Source: the NIST ThermoML archive (doi:10.1016/j.jct.2013.05.024)
± gives the expanded uncertainty stated by the source.

Conditions: 101.3 kPa, Liquid, Vibrating tube method

CCOC(=O)C(=O)OCC [diethyl ethanedioate]
Conditions	mass density [kg/m3]
278.15 K	1095.94 ± 0.31
288.14 K	1084.24 ± 0.3
298.15 K	1072.53 ± 0.29
313.15 K	1054.92 ± 0.27
328.15 K	1037.26 ± 0.26
338.15 K	1025.42 ± 0.25
348.15 K	1013.53 ± 0.24
358.15 K	1001.6 ± 0.23
